Tests used:
[1] = tested on: rats; conditions: male 7-week old rats, into the stomach in corn oil, after 7 days
Description: After subjecting the rats to a twenty-hour fasting, 0.1 ml of the diluted solution per 10g weight was forcibly applied into the stomach of four male 7-week old rats. The rats were given food and water four hours after the application and thereafter regularly fed and watered, and kept in a cage. After 7 days, the mortality was examined for the rats and LD50 was calculated.

[2] = tested on: houseflies (Musca domestica); assay: Biological test 9: topical application of acetone solution to houseflies; type: in vivo; conditions: 5 µg / one housefly, after 24 hours
Description: After 24 hours, the percent moribund was examined (two replicate).

[3] = tested on: common mosquitoes (Culex pipiens pallens); assay: Biological test 11: vapour exposure over treated aluminum plate, mosquitoes; type: in vivo; conditions: Culex pipiens, 24 h
Description: (§1) After 0.64 ml of a 0.05 (w/v) % acetone solution of the present compounds was dropped into an aluminum plate (bottom diameter : 7 cm), acetone was air-dried. Ten female common mosquitoes (Culex pipiens pallens) were left in a polyethylene cup (diameter : 9 cm; depth : 4.5 cm) and the cup was sealed with a 16-mesh nylon net to prevent direct contact of the mosquitoes with the compound. The cup was placed upside down on the aluminum plate at 25 °C for 120 minutes. The cup was then removed from the aluminum plate, and water and feed were given to the mosquitoes. After 24 hours, the mortality was examined (two replicate).

[4] = tested on: webbing clothes moth (Tineola bisselliella); assay: Biological test 13: volatile agent hung in cup with webbing clothes moth larvae; type: in vivo; conditions: volatile agent (100 µg on filter paper), 25 °C for 1 week
Description: A wool muslin fabric (2 cm × 2 cm in size) was placed on the bottom of a polyethylene cup (bottom diameter : 10 cm, opening part diameter : 12.5 cm, height : 9.5 cm, volume : 950 cm^3 ). Ten middle instar larvae of webbing clothes moth (Tineola bisselliella) were put in the cup and each of the volatile agents prepared according to the formulation example 14 was hung from the cap in the interior of the cup. After standing at 25 °C for 1 week, the cup was opened, and the mortality and the degree of damage of the wool muslin fabric by the moths were examined (two replicate).

[5] = tested on: brown planthopper (Nilaparvata lugens); assay: Biological test 2: rice plant stalk dipped in emulsion; type: in vivo; conditions: Nilaparvata lugens, 144 h; 500 ppm aqueous emulsion, larvae, after 6 days
Description: A stalk of a rice plant was dipped for one minute in a 500 ppm aqueous emulsion obtained by diluting each emulsifiable concentrate of the present compounds prepared according to the formulation example 1. The rice plant stalk was air-dried and placed in a polyethylene cup (diameter : 5.5 cm) where filter paper (diameter : 5.5 cm) impregnated with 1 ml of water was put. Approximately 30 larvae of brown planthopper (Nilaparvata lugens) were put in the polyethylene cup. After 6 days, the mortality of the larvae was examined.

[6] = tested on: common mosquitoes (Culex pipiens pallens); assay: Biological test 6: mosquito larvae in treated water; type: in vivo; conditions: Culex pipiens, 24 h; 3.5 ppm active ingredient in water, last-instar larvae, after one day
Description: 0.7 ml of aqueous emulsion, obtained by diluting emulsifiable concentrate prepared for each of the present compounds according to the formulation example 1 was added to 100 ml of ion-exchanged water (concentration of active ingredient : 3.5 ppm). Twenty last-instar larvae of common mosquitoes (Culex pipiens pallens) were left in the water. After one day, the mortality of the common mosquitoes was examined.

[7] = tested on: tobacco cutworm (Spodoptera litura); assay: Biological test 1: artificial bait impregnated with emulsion; conditions: Spodoptera litura, in Nicotiana tabacum, 144 h
[8] = tested on: southern corn rootworm (Diabrotica undecimpunctata howardi); assay: Biological test 3: treated filter paper with eggs and sprouting corn; conditions: Diabrotica undecimpunctata, in Zea mays, 192 h, read-out: mortality of the hatched larvae and eggs
[9] = tested on: webbing clothes moth (Tineola bisselliella); assay: Biological test 14: persistence of treated filter paper in cardboard box, webbing clothes moth larvae; type: in vivo; parameters: key to degree of damage: -: no damage; +: slight damage; ++: heavy damage; +++: severe damage; conditions: 36 mg on filter paper
Description: A filter paper (3.2 cm × 3.2 cm in size) treated with 36 mg of each of the present compounds and two wool muslin fabrics (25 cm × 25 cm in size) were hung down at the upper part of a corrugated cardboard box (29 cm × 29 cm × 29 cm in size). After standing at 25 °C and a humidity of 60 % for 1 week, two tea-strainer balls holding 7 to 10 middle instar larvae of webbing clothes moth (Tineola bisselliella) and one piece of wool muslin cloth (2 cm × 2 cm in size) were hung down at the upper part of the box. The box was closed with a lid. After one week, the box was opened, and the percent moribund and the degree of damage of the wool muslin cloth by the moths were examined. The same tests was repeated 2 weeks, 3 weeks and 5 weeks after the treatment to examine the persistance of the present compound. The degree of damage was represented by "-" in no damage, " + " in slight damage, " ++ " in heavy damage and "+++ " in severe damage.

[10] = tested on: webbing clothes moth (Tineola bisselliella); assay: Biological test 12: topical application to webbing clothes moth larvae; type: in vivo; conditions: 3 µg / insect, after 7 days
Description: Each of the present compounds diluted with acetone to a predetermined concentration was applied to ten middle instar larvae of webbing clothes moth (Tineola bisselliella) at the central part of the back so as to give the active ingredient in a dose of 3 µg / insect. A wool muslin fabric (2 cm × 2 cm in size) was given to the webbing clothes moths as the food. After 7 days, the mortality and the degree of damage of the wool muslin fabric by the moths were examined (two replicate).

[11] = tested on: common mosquitoes (Culex pipiens pallens); assay: Biological test 8: mosquito-coil in glass chamber, knock-down; type: in vivo; conditions: 1.0 g of 0.3 % mosquito-coil, 0.34 m^3 chamber, after 15 minutes
Description: Mosquito-coil containing the present compound in an amount of 0.3 % was prepared according to the formulation example 10 for the present compounds. Ten female common mosquitoes (Culex pipiens pallens) were left in a glass chamber (70 cm × 70 cm × 70 cm : 0.34 m^3) and 1.0 g of 0.3 % mosquito-coil having both ends lit was placed in the glass chamber. After 15 minutes, the rate of knocked-down mosquitoes was examined.

[12] = tested on: German cockroaches (Blattella germanica); assay: Biological test 5: treated filter paper with sucrose bait, cockroaches low sensitive to pyrethroids; conditions: Blattella germanica, 144 h
[13] = tested on: houseflies (Musca domestica); assay: Biological test 10: vapour exposure over treated aluminum plate, houseflies; type: in vivo; conditions: 0.64 ml of 0.05 (w/v) % acetone solution, no direct contact, 25 °C for 120 minutes, after 24 hours
Description: as §1, with “houseflies (Musca domestica)” for “common mosquitoes (Culex pipiens pallens)”, “houseflies” for “mosquitoes”, “houseflies.” for “mosquitoes.”, “percent moribund” for “mortality”

[14] = tested on: common mosquitoes (Culex pipiens pallens); assay: Biological test 7: oil solution sprayed in glass chamber, knock-down; type: in vivo; conditions: 0.7 ml of 0.1 % oil solution sprayed, 0.34 m^3 chamber, after 15 minutes
Description: Ten female common mosquitoes (Culex pipiens pallens) were left in a glass chamber (70 cm × 70 cm × 70 cm : 0.34 m^3). 0.7 ml of 0.1 % oil solution prepared for each of the present compounds according to the formulation example 7 was sprayed with a spray gun at 0.8 atmospheric pressure. After 15 minutes, the rate of knocked-down mosquitoes was examined.

Cc1ccc(COC(=O)[C@@H]2[C@H](/C=C(\Cl)C(F)(F)F)C2(C)C)o1 (racemic) [present compound (1), 5-methyl-2-furfuryl (1RS,cis)-3-(Z-2-chloro-3,3,3-trifluoroprop-1-enyl)-2,2-dimethylcyclopropanecarboxylate]
LD50 [1]: 300 mg/kg | percent moribund [2]: 100% | mortality at 500 µg/mL [3]: 100% | mortality at 0.1 mg ([4]; Tineola bisselliella, 168 h): 100% | degree of damage of the wool muslin fabric [4]: no damage | mortality at 500 ppm [5]: ≥ 90% | mortality at 3.5 ppm [6]: ≥ 90% | mortality at 500 µg/mL [7]: 100% | mortality at 50 ppm [8]: 100% | degree of damage ([9]; After 1 week): - | percent moribund ([9]; After 1 week): 100% | degree of damage ([9]; After 2 weeks): - | percent moribund ([9]; After 2 weeks): 100% | degree of damage ([9]; After 3 weeks): - | percent moribund ([9]; After 3 weeks): 100% | degree of damage ([9]; After 5 weeks): - | percent moribund ([9]; After 5 weeks): 100% | degree of damage of the wool muslin fabric [10]: no damage | mortality at 0.003 mg ([10]; Tineola bisselliella, 168 h): 100% | rate of knocked-down mosquitoes [11]: 100% | mortality at 500 ppm [12]: 100% | percent moribund [13]: 100% | rate of knocked-down mosquitoes [14]: ≥ 90%
